Columns and labels:
hPPARα = target: T1, hPPARα (Homo sapiens, UniProt Q07869); experiment: PPAR receptor transactivation assay (UAS-bla Gal4, HEK293); type: cell-based; conditions: PPARα
T1 construct: expressed in transfected cells; host or cells: Jump-In GripTite HEK293
Procedure: (§1) Compound I was tested on all three human PPAR subtypes (hPPAR): hPPARα, hPPARγ, and hPPARδ in vitro assays testing for such activity.
(§2) Compound I was tested on all three human PPAR subtypes (hPPAR): hPPARα, hPPARγ, and hPPARδ. All assays were repeated at least three times for each subtype.
(§3) The genes of interest were synthesized and cloned into an appropriate Jump-In™ retargeting vector following the User Guide of the Jump-in™ T-REx™ HEK293 Retargeting Kit (ThermoFisher Catalog No A15008). For example, the vector will be used to transfect and retarget the Jump-In™ HEK293 GripTite™ parental cell line. Stable pools will be antibiotic-selected for about 21 days and tested for target gene expression by functional assay.
(§4) Jump-In™ GripTite™ HEK293 parental cells were plated at 60-80% confluency in a T-75 flask in growth medium without antibiotics and transfected with a 1:1 ratio of expression construct and R4 integrase expression construct (20 μg DNA total) using Lipofectamine® LTX (50 μL) and PLUS™ Reagent (20 μL). Following a 48 hours incubation, cells were selected with 600 μg/mL Geneticin® and 10 μg/mL Blasticidin for ˜21 days in growth medium.
(§5) Jump-In™ GripTite™ HEK293 rPPAR Alpha, Delta or Gamma UAS-bla-Gal4 cell pools were plated in a 384-well plate format (20,000 cells per well) in OptiMeM without FBS in replicates (n=4). Cells were allowed to adhere for 8 hours before addition of Compound I (1 mM top concentration, 3-fold dilutions, 10-point titration). After 16 hours, the cells were loaded with LiveBLAzer®, a fluorescent BLA substrate that gives a blue/green readout of expressing/non-expressing cells, respectively. The blue/green readout was measured on a fluorescent plate reader (Tecan Safire II).

hPPARγ = target: T2, hPPARγ (Homo sapiens, UniProt P37231); experiment: as above; type: cell-based
T2 construct: expressed in transfected cells; host or cells: Jump-In GripTite HEK293
T2 sequence (P37231 whole entry): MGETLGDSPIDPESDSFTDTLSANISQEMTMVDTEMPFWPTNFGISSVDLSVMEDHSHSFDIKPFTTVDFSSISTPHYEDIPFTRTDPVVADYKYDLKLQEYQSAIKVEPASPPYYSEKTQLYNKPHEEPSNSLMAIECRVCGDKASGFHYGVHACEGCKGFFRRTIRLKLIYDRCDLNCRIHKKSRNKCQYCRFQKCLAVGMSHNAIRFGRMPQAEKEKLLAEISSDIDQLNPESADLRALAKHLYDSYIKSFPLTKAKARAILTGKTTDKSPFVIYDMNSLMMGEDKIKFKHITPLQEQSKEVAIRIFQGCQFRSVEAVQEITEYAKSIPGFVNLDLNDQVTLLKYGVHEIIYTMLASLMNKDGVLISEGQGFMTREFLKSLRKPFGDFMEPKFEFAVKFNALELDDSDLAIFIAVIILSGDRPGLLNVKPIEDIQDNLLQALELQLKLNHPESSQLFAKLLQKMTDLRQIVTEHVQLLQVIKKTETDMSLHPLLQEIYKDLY
Procedure: as §1, §2, §3, §4, §5

PPARα = PPARα (UniProt Q4PNY3); experiment: PPAR receptor transactivation assay; type: cell-based; conditions: Monkey PPARα
[1] = tested on: human retinoid X receptor (hRXR); experiment: Nuclear receptor activity
FXR = FXR (Homo sapiens, UniProt Q96RI1); experiment: Nuclear receptor activity
Chain of FXR (Q96RI1 whole entry, species assumed): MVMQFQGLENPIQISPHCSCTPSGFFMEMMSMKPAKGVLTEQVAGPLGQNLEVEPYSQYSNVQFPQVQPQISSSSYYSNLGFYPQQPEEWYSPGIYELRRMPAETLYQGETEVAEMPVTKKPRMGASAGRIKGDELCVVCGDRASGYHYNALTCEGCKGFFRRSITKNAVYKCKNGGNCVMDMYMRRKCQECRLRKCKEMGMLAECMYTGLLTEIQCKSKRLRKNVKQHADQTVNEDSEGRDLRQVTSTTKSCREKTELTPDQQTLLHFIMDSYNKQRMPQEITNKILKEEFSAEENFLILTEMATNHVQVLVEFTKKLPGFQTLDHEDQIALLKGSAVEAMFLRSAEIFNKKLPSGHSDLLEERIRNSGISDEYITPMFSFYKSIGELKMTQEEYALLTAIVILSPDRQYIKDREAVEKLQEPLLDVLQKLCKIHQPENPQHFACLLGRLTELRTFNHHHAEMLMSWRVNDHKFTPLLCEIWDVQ

LXRα = LXRα (Homo sapiens, UniProt Q13133); experiment: Nuclear receptor activity
Chain of LXRα (Q13133 whole entry): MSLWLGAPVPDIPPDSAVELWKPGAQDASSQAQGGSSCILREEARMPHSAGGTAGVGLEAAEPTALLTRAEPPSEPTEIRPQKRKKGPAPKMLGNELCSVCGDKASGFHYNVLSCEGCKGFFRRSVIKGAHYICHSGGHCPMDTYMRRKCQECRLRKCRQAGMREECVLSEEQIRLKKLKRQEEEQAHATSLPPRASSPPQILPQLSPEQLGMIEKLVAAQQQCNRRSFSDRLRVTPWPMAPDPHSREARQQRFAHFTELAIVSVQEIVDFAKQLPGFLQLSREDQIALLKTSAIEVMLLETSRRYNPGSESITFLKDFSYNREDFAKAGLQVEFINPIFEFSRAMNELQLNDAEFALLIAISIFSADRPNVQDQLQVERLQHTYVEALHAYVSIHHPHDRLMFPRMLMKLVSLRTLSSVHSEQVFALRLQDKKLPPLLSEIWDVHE

LXRβ = LXRβ (Homo sapiens, UniProt P55055); experiment: Nuclear receptor activity
Chain of LXRβ (P55055 whole entry): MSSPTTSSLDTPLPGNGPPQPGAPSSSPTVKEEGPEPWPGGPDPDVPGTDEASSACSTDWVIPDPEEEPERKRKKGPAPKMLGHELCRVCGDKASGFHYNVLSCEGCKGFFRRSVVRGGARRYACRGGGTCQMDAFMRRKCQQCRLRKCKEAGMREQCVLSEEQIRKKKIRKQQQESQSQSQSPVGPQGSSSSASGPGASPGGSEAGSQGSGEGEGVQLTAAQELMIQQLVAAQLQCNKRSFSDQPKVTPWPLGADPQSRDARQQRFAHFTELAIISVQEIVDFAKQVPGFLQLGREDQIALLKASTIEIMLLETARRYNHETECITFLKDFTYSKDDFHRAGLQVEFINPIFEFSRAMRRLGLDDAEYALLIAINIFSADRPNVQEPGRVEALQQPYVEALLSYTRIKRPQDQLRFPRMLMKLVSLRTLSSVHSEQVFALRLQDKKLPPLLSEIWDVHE

human muscle cell lines = experiment: Fatty acid oxidation in muscle cell lines; type: cell-based
rat muscle cell lines = experiment: Fatty acid oxidation in muscle cell lines; type: cell-based
[2] = tested on: Angiopoietin-like 4 (ANGPTL4); experiment: In vivo expression of PPAR regulated target gene in muscle; conditions: rat muscle
[3] = tested on: patients with primary mitochondrial myopathy; experiment: Clinical trial for primary mitochondrial myopathy (PMM); type: in vivo, human
[4] = tested on: healthy male volunteers, leg immobilization; experiment: Phase 1 placebo-controlled study in healthy volunteers with single limb immobilization; type: in vivo, human; conditions: 100 mg twice daily for 28 days
Procedure: In a prior clinical trial in healthy volunteers, Compound I was administered at dose of 100 mg twice daily for 28 days in healthy volunteers during and after a single limb immobilization (see NCT01524406). The study was conducted to evaluate the impact of Compound I on the recovery of muscle atrophy from leg immobilization, and improvements in cross section area (CSA) and muscle strength parameters expected in patients treated with study drug compared to those given placebo.
This phase 1, randomized, parallel group, placebo-controlled study was conducted at 2 centers in the United States. Fifty participants were planned for enrollment, 25 per group; participants could be replaced upon sponsor approval.
Screening was conducted 28 days before study start; eligibility was reviewed again at prespecified times during the study. Ambulatory, non-smoking, healthy male volunteers 30 to 55 years of age with a Body Mass Index (BMI) from 18 to 30 kg/m2 were recruited for the study. Key exclusion criteria included abnormal laboratory values at screening, a recent history of body weight fluctuations, positive urine drug screens, drug dependency or illicit drug use, professional sport participation within 30 days of screening, donation of whole blood within 90 days of dosing, and donation of plasma within 30 days of dosing. Concomitant medications within 14 days of dosing were not allowed unless approved by the sponsor. Those who had enrolled in another clinical trial within 90 days or had previously received Compound II were not allowed to participate.
Participants were randomly assigned 1:1 to receive either Compound II (100 mg BID) or matching placebo for 28 days using a computer generated randomization schedule provided by the sponsor. The principal investigator, study center staff, and participants were blinded to treatment; the protocol was amended so that sponsor personnel were not blinded. This change was made to allow investigation of observations concerning adherence to the protocol, discussed further in the pharmacodynamic results. Compound II and placebo were provided as capsules identical in appearance, taken orally with 240 ml of water prior to meals. Study drug was administered at the study site on Days 1 (PM dose), 6 (AM dose), 13 (PM dose), and 14, 15, 16, 29 (AM doses). At all other times study drug was self-administered just before breakfast and dinner. Dates and times were recorded in a diary, with compliance determined from the diaries and capsule counts. Study drug supplies were packaged according to the randomization codes by a contract research organization. Each dispensed bottle was labeled with the randomization number. Individual capsules were re-dispensed from these bottles by the study site staff, maintaining the blind. The total study duration for each subject was 42 days. Participants stayed overnight from Day 1 and Days 13 to 16.
Standardized meals, beverages and snacks were provided during the domicile periods. On Day 1, participants were leg-immobilized using a knee brace with […] on the left leg to allow driving. Walking crutches were provided to prevent weight bearing on the immobilized leg. An accelerometer was issued at screening and was used to count the number of steps per day. Participants were to walk 4000 to 6000 steps each day for the duration of the leg immobilization period, and recorded accelerometer readings each evening before bedtime. The brace was removed on Day 14, and participants resumed normal physical activity gradually from Days 16 to 29. After stopping study drug on Day 29, participants were to resume regular daily activity gradually for another 2 weeks. Consumption of prescribed medications or over the counter products was prohibited from 14 days prior to dosing and throughout the study, with the exception of the treatment of an adverse event. Participants were not to consume alcohol or caffeine containing food and beverages 3 days before each study visit and domicile periods. […]

[5] = 100 mg once daily, 12 weeks, listed as Compound 1

T1 sequence (Q07869 whole entry, the tested form may be a part): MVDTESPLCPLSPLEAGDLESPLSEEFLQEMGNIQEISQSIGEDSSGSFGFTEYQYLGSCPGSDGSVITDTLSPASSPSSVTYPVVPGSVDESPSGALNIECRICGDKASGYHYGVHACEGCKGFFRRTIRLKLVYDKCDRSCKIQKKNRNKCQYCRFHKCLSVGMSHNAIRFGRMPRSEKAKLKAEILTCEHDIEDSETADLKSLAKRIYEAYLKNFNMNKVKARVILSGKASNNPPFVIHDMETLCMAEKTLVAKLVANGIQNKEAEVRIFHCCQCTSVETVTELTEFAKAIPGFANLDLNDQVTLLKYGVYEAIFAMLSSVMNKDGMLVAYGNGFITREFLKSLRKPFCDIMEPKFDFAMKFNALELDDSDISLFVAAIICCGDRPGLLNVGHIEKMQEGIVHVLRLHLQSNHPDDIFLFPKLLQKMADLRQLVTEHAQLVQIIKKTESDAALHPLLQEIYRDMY

Cc1cc(OC/C=C(/c2ccc(F)cc2)c2ccc(C#CCN3CCOCC3)cc2)ccc1OCC(=O)O [Compound I, (E)-2-(4-((3-(4-fluorophenyl)-3-(4-(3-morpholinoprop-1-yn-1-yl)phenyl)allyl)oxy)-2-methylphenoxy)acetic acid]
agonist type (hPPARα): partial agonist | agonist type (hPPARγ; PPARγ): partial agonist | EC50 (hPPARγ; human PPARγ): > 10 µM | EC50 (PPARα): > 1000 nM | hRXR activity [1]: did not show any | activity on nuclear receptor FXR (FXR): did not show any | activity on nuclear receptor LXRα (LXRα): did not show any | activity on nuclear receptor LXRβ (LXRβ): did not show any | fatty acid oxidation (human muscle cell lines): dose-dependent increase | fatty acid oxidation (rat muscle cell lines): dose-dependent increase | expression of ANGPTL4 [2]: increased the expression | Modified Fatigue Impact Scale scores ([3]; 100 mg once daily, 12 weeks): trends towards increases | brief pain inventory (BPI) score ([3]; 100 mg once daily, 12 weeks): Decreases | distance walked during a 12-minute walk test ([3]; 100 mg once daily, 12 weeks): able to increase the distance walked | peak VO2 ([3]; 100 mg once daily, 12 weeks): trends towards increases | brief pain inventory (BPI) score [3, 5]: decreased | distance walked during a 12-minute walk test [3, 5]: Improvements | tolerability ([3]; PMM patients): well tolerated | expression of PPAR regulated target genes (ANGPTL4) and fatty acid metabolism genes (PDK4) in muscle biopsies [4]: significant increases | mean knee extension strength from baseline vs placebo ([4]; Day 21): significant increase
